The source made the active and inactive calls. The rule behind the calls is not given here.
Key:
[1] = test system: B16-F10; assay: Antitumor immunity against mouse B16-F10 cells implanted in C57BL/6J mouse assessed as fold increase in downregulation of CD200R expression in spleen by flow cytometry analysis relative to control; assay type: functional
[2] = test system: B16-F10; assay: Antitumor activity against mouse B16-F10 cells xenografted in C57BL/6J mouse assessed as change in tumor cell morphology into normal tissue at 60 mg/kg, IG administered for 12 days by H and E staining based histopathological analysis; assay type: functional, organism-based; settings: time 12.0 day
[3] = test system: B16-F10; assay: Antitumor immunity against mouse B16-F10 cells implanted in C57BL/6J mouse assessed as fold increase in proportion of macrophages in spleen by flow cytometry analysis relative to control; assay type: functional
[4] = test system: HEL; assay: Antitumor activity against HEL cells xenografted in mouse assessed as inhibition of tumor growth at 90 mg/kg, ip administered for 20 days; assay type: functional, organism-based; settings: Homo sapiens, time 20.0 day
[5] = test system: B16-F10; assay: Antitumor activity against mouse B16-F10 cells implanted in C57BL/6J mouse assessed as reduction on tumor weight at 60 mg/kg, IG administered for 12 days; assay type: functional, organism-based; settings: time 12.0 day
[6] = test system: B16-F10; assay: Antitumor immunity against mouse B16-F10 cells implanted in C57BL/6J mouse assessed as fold increase in CD86 expression by flow cytometry analysis relative to control; assay type: functional
[7] = test system: B16-F10; assay: Induction of apoptosis in mouse B16-F10 cells at 5 to 10 uM measured after 24 hrs by Annexin V-FITC/propidium iodide staining based flow cytometry analysis; assay type: functional, cell-based; settings: dose 5-10 µM
[8] = molecular target: T1, Histone deacetylase 8 (Homo sapiens, UniProt Q9BY41); assay: Inhibition of HDAC8 (unknown origin) using fluorogenic substrate incubated for 30 mins by fluorescence based assay
T1 sequence (Q9BY41 whole entry): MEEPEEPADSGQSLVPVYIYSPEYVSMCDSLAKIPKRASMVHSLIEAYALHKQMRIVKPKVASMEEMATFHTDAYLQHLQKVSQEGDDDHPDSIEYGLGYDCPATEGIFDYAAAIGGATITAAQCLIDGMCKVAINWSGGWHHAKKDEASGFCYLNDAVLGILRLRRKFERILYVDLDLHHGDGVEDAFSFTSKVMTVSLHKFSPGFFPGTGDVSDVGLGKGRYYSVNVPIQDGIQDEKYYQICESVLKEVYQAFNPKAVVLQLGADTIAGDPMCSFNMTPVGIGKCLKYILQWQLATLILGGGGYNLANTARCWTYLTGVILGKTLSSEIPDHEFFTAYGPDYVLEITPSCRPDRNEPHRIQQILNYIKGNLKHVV

[9] = test system: B16-F10; assay: Antitumor immunity against mouse B16-F10 cells implanted in C57BL/6J mouse assessed as fold reduction in macrophages in tumor microenvironment by flow cytometry analysis relative to control; assay type: functional
[10] = test system: HEL; assay: cells; assay type: functional, cell-based; settings: Homo sapiens, 48 h
Description: Antiproliferative activity against HEL cells assessed as inhibition of cell growth measured after 48 hrs by MTT assay

[11] = test system: B16-F10; assay: Antitumor activity against mouse B16-F10 cells xenografted in C57BL/6J mouse assessed as reduction in tumor heterogeneity at 60 mg/kg, IG administered for 12 days by H and E staining based histopathological analysis; assay type: functional, organism-based; settings: time 12.0 day
[12] = test system: PC-3; assay: cells; assay type: functional, cell-based; settings: Homo sapiens, PC-3, 48 h
Description: Antiproliferative activity against human PC3 cells assessed as inhibition of cell growth measured after 48 hrs by MTT assay

[13] = test system: B16-F10; assay: cells; assay type: functional, cell-based; settings: Mus musculus, B16-F10, 48 h
Description: Antiproliferative activity against mouse B16-F10 cells assessed as inhibition of cell growth measured after 48 hrs by MTT assay

[14] = test system: B16-F10; assay: Antitumor immunity against mouse B16-F10 cells implanted in C57BL/6J mouse assessed as fold reduction in Treg cells in spleen by flow cytometry analysis relative to control; assay type: functional
[15] = molecular target: Histone deacetylase; assay: Inhibition of HDAC in human HeLa nuclear extract using fluorogenic substrate incubated for 30 mins by fluorescence based assay; assay type: cell-based
[16] = test system: K562; assay: cells; assay type: functional, cell-based; settings: Homo sapiens, K562, 48 h
Description: Antiproliferative activity against human K562 cells assessed as inhibition of cell growth measured after 48 hrs by MTT assay

[17] = molecular target: T2, Protein deacetylase HDAC6 (Homo sapiens, UniProt Q9UBN7); assay: Inhibition of HDAC6 (unknown origin) using fluorogenic substrate incubated for 30 mins by fluorescence based assay
T2 sequence (Q9UBN7 whole entry): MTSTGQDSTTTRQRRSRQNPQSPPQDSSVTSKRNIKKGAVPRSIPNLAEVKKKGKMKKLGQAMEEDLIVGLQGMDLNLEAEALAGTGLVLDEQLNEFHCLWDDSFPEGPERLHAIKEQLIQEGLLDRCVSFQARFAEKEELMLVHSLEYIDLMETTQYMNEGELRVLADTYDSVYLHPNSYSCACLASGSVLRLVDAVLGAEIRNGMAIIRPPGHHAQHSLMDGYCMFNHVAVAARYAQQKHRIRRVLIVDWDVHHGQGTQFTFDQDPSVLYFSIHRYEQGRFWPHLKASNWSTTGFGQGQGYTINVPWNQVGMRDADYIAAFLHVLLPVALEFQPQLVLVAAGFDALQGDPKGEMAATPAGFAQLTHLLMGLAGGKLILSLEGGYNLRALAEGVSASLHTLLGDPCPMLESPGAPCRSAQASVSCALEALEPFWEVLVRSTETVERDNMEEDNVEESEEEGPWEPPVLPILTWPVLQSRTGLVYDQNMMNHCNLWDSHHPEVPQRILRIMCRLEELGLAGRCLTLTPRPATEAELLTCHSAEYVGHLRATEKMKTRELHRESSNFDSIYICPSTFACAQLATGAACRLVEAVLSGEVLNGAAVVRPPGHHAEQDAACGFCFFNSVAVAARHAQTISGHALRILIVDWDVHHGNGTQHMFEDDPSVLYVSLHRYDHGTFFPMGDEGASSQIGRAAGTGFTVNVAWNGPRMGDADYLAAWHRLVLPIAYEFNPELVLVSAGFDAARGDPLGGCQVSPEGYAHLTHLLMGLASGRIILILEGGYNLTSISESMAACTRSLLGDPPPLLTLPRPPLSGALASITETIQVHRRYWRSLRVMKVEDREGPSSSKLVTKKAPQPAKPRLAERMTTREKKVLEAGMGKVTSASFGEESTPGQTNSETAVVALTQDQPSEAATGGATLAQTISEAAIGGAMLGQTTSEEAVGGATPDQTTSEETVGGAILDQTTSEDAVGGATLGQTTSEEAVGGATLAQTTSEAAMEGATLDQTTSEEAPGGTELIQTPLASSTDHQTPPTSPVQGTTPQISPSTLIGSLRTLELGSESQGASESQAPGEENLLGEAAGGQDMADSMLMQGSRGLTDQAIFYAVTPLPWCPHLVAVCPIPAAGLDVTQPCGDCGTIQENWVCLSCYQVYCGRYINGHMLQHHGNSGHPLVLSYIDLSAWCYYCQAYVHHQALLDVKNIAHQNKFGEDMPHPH

[18] = molecular target: Histone deacetylase 2 (Homo sapiens, UniProt Q92769); assay: Inhibition of HDAC2 (unknown origin) using fluorogenic substrate incubated for 30 mins by fluorescence based assay
Sequence of Histone deacetylase 2 (Q92769 whole entry): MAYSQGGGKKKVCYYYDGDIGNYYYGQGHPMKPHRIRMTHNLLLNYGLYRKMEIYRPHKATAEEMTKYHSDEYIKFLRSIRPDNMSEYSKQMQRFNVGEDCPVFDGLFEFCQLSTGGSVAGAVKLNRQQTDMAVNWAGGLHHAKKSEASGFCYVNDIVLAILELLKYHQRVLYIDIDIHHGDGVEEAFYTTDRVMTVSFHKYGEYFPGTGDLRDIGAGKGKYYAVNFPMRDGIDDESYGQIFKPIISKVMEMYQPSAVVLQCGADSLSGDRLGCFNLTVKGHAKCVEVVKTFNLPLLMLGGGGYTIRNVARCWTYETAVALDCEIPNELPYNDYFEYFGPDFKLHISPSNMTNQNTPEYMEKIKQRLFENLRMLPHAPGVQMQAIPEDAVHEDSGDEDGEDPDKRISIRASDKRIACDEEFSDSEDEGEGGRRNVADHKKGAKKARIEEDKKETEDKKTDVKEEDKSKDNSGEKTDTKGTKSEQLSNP

[19] = test system: KG-1; assay: Antiproliferative activity against human KG-1 cells assessed as inhibition of cell growth measured after 48 hrs by MTT assay; assay type: functional, cell-based; settings: KG-1, 48 h
[20] = test system: B16-F10; assay: Antitumor activity against mouse B16-F10 cells implanted in C57BL/6J mouse assessed as reduction on tumor size at 60 mg/kg, IG administered for 12 days; assay type: functional, organism-based; settings: time 12.0 day

IC50 [8]	IC50 [10]	IC50 [12]	IC50 [13]	IC50 [15]	IC50 [16]	IC50 [17]	IC50 [18]	Structure (SMILES)	fold change (FC) [1]	Activity [2]	fold change (FC) [3]	Activity [4]	Activity [5]	fold change (FC) [6]	Activity [7]	fold change (FC) [9]	Activity [11]	fold change (FC) [14]	IC50 [19]	Activity [20]
5980 nM	20 nM	2700 nM	4800 nM	13.2 nM	290 nM	47 nM	46 nM	O=C(CCCCCCOc1cccc(-c2nc3ccccc3[nH]2)c1)NO	1.3	Active	1.6	Active	Active	1.3	Active	1.7	Active	1.5	190 nM	Active
12.9 nM	360 nM	7900 nM	3970 nM	7.9 nM	990 nM	9.2 nM	91 nM	O=C(CCCCCCCOc1cccc(-c2nc3ccccc3[nH]2)c1)NO	1.3	Active	1.6	Active	Active	1.3	Active	1.7	Active	1.5	3400 nM	Active

Reference: ChEMBL document CHEMBL5038666, “Discovery of DNA-Targeting HDAC Inhibitors with Potent Antitumor Efficacy In Vivo That Trigger Antitumor Immunity” (J Med Chem, 2022)
